Patent publication US7833979B2, “Toxin peptide therapeutic agents” (Amgen Inc., priority 2005, dated 2010)
Entries after “also recorded” stand apart in the source; their conditions may differ. Where no end group is shown, it is not given here.

How the values were obtained:
[1] = tested on: upregulation of CD40L and IL-2R on CD4+ T cells in human whole blood; assay: Ex vivo human whole blood assay, thapsigargin-induced cell surface CD40L and IL-2R on T cells (FACS); type: cell-based; details: 24 hours
[2] = tested on: thapsigargin-induced IL-2 and IFN-g production in human whole blood; assay: Ex vivo human whole blood assay, thapsigargin-induced secretion of IL-2 and IFN-g; type: cell-based; details: for Thapsigargin-induced IFN-g production in human whole blood / Thapsigargin-induced IL-2 production in human whole blood: two donors, 48 hours
Kv1.3 = Kv1.3 (Homo sapiens, UniProt P22001); assay: Whole cell patch clamp electrophysiology on HEK293 cells stably expressing human Kv1.3; type: cell-based; details: for Blockade of human Kv1.3 current (in words): patch clamp electrophysiology; for selectivity ratio hKv1.1/hKv1.3: ratio of hKv1.1 IC50 to hKv1.3 IC50
Chain of Kv1.3 (P22001 whole entry): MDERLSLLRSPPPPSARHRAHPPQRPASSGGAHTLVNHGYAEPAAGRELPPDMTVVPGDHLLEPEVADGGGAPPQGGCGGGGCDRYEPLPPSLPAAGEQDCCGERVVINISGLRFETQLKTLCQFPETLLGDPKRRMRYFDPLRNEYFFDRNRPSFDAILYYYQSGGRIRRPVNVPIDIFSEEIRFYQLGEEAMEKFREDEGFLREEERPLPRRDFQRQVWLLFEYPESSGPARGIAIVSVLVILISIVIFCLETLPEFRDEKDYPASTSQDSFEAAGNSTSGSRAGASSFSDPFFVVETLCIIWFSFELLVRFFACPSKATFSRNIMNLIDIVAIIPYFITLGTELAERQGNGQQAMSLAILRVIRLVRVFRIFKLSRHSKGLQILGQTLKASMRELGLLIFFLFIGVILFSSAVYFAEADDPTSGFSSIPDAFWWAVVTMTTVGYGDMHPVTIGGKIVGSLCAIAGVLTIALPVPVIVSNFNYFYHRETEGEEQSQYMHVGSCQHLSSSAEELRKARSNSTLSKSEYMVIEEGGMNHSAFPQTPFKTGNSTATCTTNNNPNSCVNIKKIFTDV

human Kv1.1 = molecular target: T1, human Kv1.1 (Homo sapiens, UniProt Q09470); assay: Whole cell patch clamp electrophysiology, HEK293 cell expression system, human Kv1.1; type: cell-based
T1 construct: expressed in transfected cells; host or cells: HEK293
T1 sequence (Q09470 whole entry): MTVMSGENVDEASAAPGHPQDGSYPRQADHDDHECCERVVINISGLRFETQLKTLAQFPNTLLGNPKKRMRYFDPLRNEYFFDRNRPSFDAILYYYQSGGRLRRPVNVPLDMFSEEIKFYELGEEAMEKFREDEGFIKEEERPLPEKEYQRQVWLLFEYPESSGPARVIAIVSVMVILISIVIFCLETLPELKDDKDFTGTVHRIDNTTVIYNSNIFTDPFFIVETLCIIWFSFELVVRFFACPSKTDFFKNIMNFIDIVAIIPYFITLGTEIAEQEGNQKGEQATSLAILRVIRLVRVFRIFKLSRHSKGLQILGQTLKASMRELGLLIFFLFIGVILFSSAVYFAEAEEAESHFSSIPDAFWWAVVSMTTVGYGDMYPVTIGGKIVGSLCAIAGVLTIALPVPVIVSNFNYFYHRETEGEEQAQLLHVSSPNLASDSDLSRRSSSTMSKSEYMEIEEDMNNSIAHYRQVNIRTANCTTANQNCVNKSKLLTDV

[3] = tested on: IL-2 and IFNg production from anti-CD3 and anti-CD28 stimulated human PBMCs; assay: Inhibition of T cell cytokine production following anti-CD3 and anti-CD28 antibody stimulation of PBMCs; type: cell-based; details: 48 hours
Experimental: Inhibition of T cell cytokine production following Anti-CD3 and anti-CD28 antibody stimulation of PBMCs. PBMCs were previously isolated from normal human donor Leukopheresis packs, purified by density gradient centrifugation (Ficoll Hypaque), and cryopreserved using INCELL Freezing Medium. PBMCs were thawed (95% viability), washed, and seeded (in RPMI complete medium containing serum replacement, PSG) at 2×10^5 cells per well into 96-well flat bottom plates. Cells were pre-incubated with serially diluted (100 nM-0.003 nM final) ShK[1-35], Fc-L10-ShK[1-35], or Fc control for 1 hour before the addition of aCD3 and aCD28 (2.5 ng/mL and 100 ng/mL respectively) in a final assay volume of […]. Supernatants were collected after 48 hours, and analyzed using the Meso Scale Discovery (MSD) SECTOR™ Imager 6000 (Meso Scale Discovery, Gaithersbury, Md.) to measure the IL-2 and IFNg protein levels by utilizing electrochemiluminescence (ECL). […] of supernatant was added to the MSD multi-spot 96-well plates (each well containing IL-2, TNFa, and IFNg capture antibodies). The plates were sealed and incubated at room temperature on a plate shaker for 1 hour. Then […] of Ruthenium-labeled detection antibodies (1 ug/ml final of IL-2, TNFα, and IFNγ in Antibody Dilution Buffer) and […] of 2×MSD Read Buffer were added. The plates were sealed, covered with tin foil, and incubated at room temperature on a plate shaker for 1 hour. The plates were then read on the SECTOR™ Imager 6000. […] (POC=Percent Of Control of response in the absence of inhibitor).

[4] = Intravenous pharmacokinetic study in rats, serum levels by Kv1.3 inhibition bioassay; type: in vivo, Spraque Dawley rats; details: for Time of significant suppression of Kv1.3 current (<70 POC) by serum: single equal molar IV injection, 5% serum Test solutions
Experimental: This dose represented equal molar amounts of these two molecules. The average weight of the rats was about 0.3 kg and two rats were used for each dose & molecule. At various times following IV injection, blood was drawn and about 0.1 ml of serum was collected. Serum samples were stored frozen at −80° C. until analysis.
Assay Plate preparation for electrophysiology. […] Before experiments, each sample was thawed at room temperature and an aliquot (70 to 80 μl) was transferred to a well in a 96-well polypropylene plate. In order to prepare the Assay Plate, several dilutions were made from the pharmacokinetic serum samples to give rise to Test Solutions. Dilutions of serum samples from the pharmacokinetic study were into 10% Phosphate Buffered Saline (PBS, with Ca^2+ and Mg^2+). […] Standard inhibition curves were also prepared in the Assay Plate.
Cell preparation for electrophysiology. CHO cells stably expressing the voltage-activated K^+ channel, Kv1.3 were plated in T-175 tissue culture flasks (at a density of 5×10^6) 2 days before experimentation and allowed to grow to around 95% confluence. Immediately prior to the experiment, the cells were washed with PBS and then detached with a 2 ml mixture (1:1 volume ratio) of trypsin (0.25%) and versene (1:5000) at 37° C. (for 3 minutes). […] The mean K^+ current amplitude was measured between 430 and 440 ms and the data were exported to a Microsoft Excel spreadsheet. The amplitude of the K^+ current in the presence of each concentration of the Test Solution or Standard was expressed as a percentage of the K^+ current in control conditions in the same well.
Standard inhibition curves were generated for each standard in various levels of rat serum and expressed as current percent of control (POC) versus log of nM concentration. […]
Beyond 48 hours, the level of drug falls outside the linear range of the Standard curve and is not calculated. […]

[5] = cited from earlier work
[6] = tested on: AT-EAE model of multiple sclerosis; assay: Adoptive transfer experimental autoimmune encephalomyelitis (AT-EAE) model of multiple sclerosis; type: in vivo, Lewis rats; details: for Survival to the end of the study: n=5 rats per group; for peak clinical severity score average: scale 0-6

With “Fc-L10-ShK[2-35]: human IgG1 Fc fused via 10 amino acid linker to ShK[2-35]; SEQ ID NO: 81” as the compound, how does the “Thapsigargin-induced upregulation of CD40L on T cells in human whole blood” value [1] read?
Its value is “blocked”.

What about the “Thapsigargin-induced upregulation of the IL-2R on T cells in human whole blood” value [1] of the same compound?
The value was “blocked; also recorded: suppressing activation of the IL-2R”.

What about the “Potency in blocking IL-2 production relative to cyclosporine A (by IC50)” value ([2]; human whole blood) of the same compound?
The value was “more than 200 times”.

What about the “Thapsigargin-induced IFN-g production in human whole blood” value (“Thapsigargin-induced IFN-g production” for short) [2] of the same compound?
The value was “suppressed; also recorded: blocked”.

What about the “Thapsigargin-induced IL-2 production in human whole blood” value (“Thapsigargin-induced IL-2 production” below) [2] of the same compound?
The value was “suppressed; also recorded: potently blocked IL-2 secretion”.

And the “Blockade of human Kv1.3 current (in words)” value (“Blockade” below) (Kv1.3)?
The value was “potently blocks human Kv1.3 current”.

With “Fc-L10-OSK1[K7S]: OSK1-peptibody with lysine to serine substitution at position 7; SEQ ID NO: 1043” as the compound, how does the IC50 (human Kv1.1; whole cell patch clamp, HEK293 cell expression system, human Kv1.1, read-out: hKv1.1:IC50) read?
Its IC50 is 100 nM.

What about the “selectivity ratio hKv1.1/hKv1.3” value (Kv1.3) of the same compound?
The value was 269.

Which results are given for “Fc-L10-OSK1[K7S,E16K,K20D]: OSK1-peptibody with K7S, E16K and K20D substitutions; SEQ ID NO: 1047”?
Potency and selectivity Kv1.3 versus Kv1.1 (in words) (human Kv1.1): significant decrease in potency as well as selectivity; selectivity ratio hKv1.1/hKv1.3 (Kv1.3): 12

Which “Thapsigargin-induced upregulation of CD40L on T cells in human whole blood” value [1] does the source give for `CC[C@H](C)[C@@H]1NC(=O)[C@@H](NC(=O)[C@H](CO)NC(=O)[C@@H](N)CCCNC(=N)N)CSSC[C@@H](C(=O)O)NC(=O)[C@H]([C@@H](C)O)NC(=O)CNC(=O)[C@@H]2CSSC[C@@H]3NC(=O)[C@H](CCC(N)=O)NC(=O)[C@H](Cc4ccccc4)NC(=O)[C@H](C)NC(=O)[C@H]([C@@H](C)O)NC(=O)[C@H](CSSC[C@H](NC(=O)[C@H](Cc4ccccc4)NC(=O)[C@H](CO)NC(=O)[C@H](CC(C)C)NC(=O)[C@H](CCCNC(=N)N)NC(=O)[C@H](Cc4ccc(O)cc4)NC(=O)[C@H](CCCCN)NC(=O)[C@H](CCSC)NC(=O)[C@H](CO)NC(=O)[C@H](Cc4cnc[nH]4)NC(=O)[C@H](CCCCN)NC3=O)C(=O)N[C@@H](CCCNC(=N)N)C(=O)N[C@@H](CCCCN)C(=O)N[C@@H]([C@@H](C)O)C(=O)N2)NC(=O)[C@H](CCCNC(=N)N)NC(=O)[C@H](CO)NC(=O)[C@H](CCCCN)NC(=O)[C@@H]2CCCN2C(=O)[C@H]([C@@H](C)CC)NC(=O)[C@H]([C@@H](C)O)NC(=O)[C@H](CC(=O)O)NC1=O` [ShK[1-35], Stichodactyla helianthus neurotoxin, reference compound] here?
Its value is “suppressed”.

What about the “Thapsigargin-induced upregulation of the IL-2R on T cells in human whole blood” value [1] of the same compound?
Its value is “suppressed”.

And the “Thapsigargin-induced upregulation of the IL-2R on T cells in human whole blood” value ([1]; listed as ShK)?
The value was “suppressing activation of the IL-2R”.

And the “Inhibition of IFNg production” value [3]?
Its value is “only partial inhibtion”.

And the “Inhibition of IL-2 production” value [3]?
The value was “only partial inhibtion”.

And the “Time of significant suppression of Kv1.3 current (<70 POC) by serum” value [4]?
Its value is at most 1 h.

What about the “half-life in vivo of ShK” value [5] of the same compound?
The value was about 0.333 h.

What about the “half-life of native ShK” value ([5]; in vivo) of the same compound?
Its value is “approximately 0.33 hour”.

What about the “Thapsigargin-induced IFN-g production” value [2] of the same compound?
The value was “suppressed”.

And the “Thapsigargin-induced IL-2 production” value [2]?
Its value is “suppressed”.

What about the “Thapsigargin-induced IL-2 production” value ([2]; listed as ShK) of the same compound?
The value was “potently blocked IL-2 secretion”.

And the “Blockade” value (Kv1.3)?
The value was “potently block Kv1.3”.

With “Fc-L-KTX1: peptibody: Fc fused via linker to Kaliotoxin1 (KTX1, SEQ ID NO: 24)” as the compound, how does the “Blockade” value (Kv1.3) read?
Its value is “blocked the human Kv1.3 current in a dose-dependent fashion”.

What does the source list for “PEG-ShK[1-35]: synthetic ShK N-terminally PEGylated with 20 kDa monomethoxy-PEG-aldehyde by reductive alkylation; about 24-kDa”?
Average body weight lost ([6]; 1 ug/kg): 30 g; Onset of disease ([6]; 1 μg/kg SC daily days −1 to 3): 4 days; Average body weight lost ([6]; 10 μg/kg): 18 g; Onset of disease ([6]; 10 μg/kg SC daily days −1 to 3): 4.5 days; Survival to the end of the study ([6]; 10 μg/kg): all but one rat survived to the end of the study; peak clinical severity score average ([6]; 10 μg/kg): < 2; Average body weight lost ([6]; 100 μg/kg): 11 g; Onset of disease ([6]; 100 μg/kg SC daily days −1 to 3): 4.5 days; Survival to the end of the study ([6]; 100 μg/kg): all but one rat survived to the end of the study; peak clinical severity score average ([6]; 100 μg/kg): < 2; Disease severity and survival (in words) ([6]; SC 10 μg/kg daily from day −1 to day 3): significantly reduced disease severity and increased survival; terminal half-life (t1/2 b) ([4]; IV injection 1 mg/kg, estimated from curve): 6 to 12 h; Time of significant suppression of Kv1.3 current (<70 POC) by serum [4]: more than 24 hours; IC50 (Kv1.3; blockade of peak outward potassium current, HEK293 cells stably expressing human Kv1.3, read-out: peak IC50): 0.169 nM

With “iberiotoxin (QFTDVDCSVSKECWSVCKDLFGVDRGKCMGKKCRCYQ; BKCa peptide inhibitor sequence - IbTx) [reference compound]” as the compound, how does the “Thapsigargin-induced upregulation of CD40L on T cells in human whole blood” value [1] read?
The value was “no significant activity”.

What about the “Thapsigargin-induced upregulation of the IL-2R on T cells in human whole blood” value [1] of the same compound?
Its value is “no significant activity”.

What about the “Thapsigargin-induced IFN-g production” value [2] of the same compound?
The value was “no significant activity”.

And the “Thapsigargin-induced IL-2 production” value [2]?
The value was “no significant activity”.

With dendrotoxin-K as the compound, how does the “Thapsigargin-induced upregulation of CD40L on T cells in human whole blood” value [1] read?
The value was “no significant activity”.

And the “Thapsigargin-induced upregulation of the IL-2R on T cells in human whole blood” value [1]?
The value was “no significant activity”.

For “PEG-ShK[2-35]: folded Des-Arg1-ShK N-terminally mono-PEGylated with 20 kDa MeO-PEG-aldehyde by reductive amination ({mPEG 20 kDa}-SCIDTIPKSRCTAFQCKHSMKYRLSFCRKTCGTC; disulfide (positions not given here); ends not checked; also: folded (disulfides not given here))”, which “Blockade” value (Kv1.3) is on record?
Its value is “active in blocking human Kv1.3”.

Which “selectivity ratio hKv1.1/hKv1.3” value (Kv1.3) does the source give for “Fc-L10-OSK1[E16K,K20D]: OSK1-peptibody with E16K and K20D substitutions; SEQ ID NO: 1045” here?
Its value is 403.
